One may read the IC50 as the concentration needed to halve the response being measured.

Counter-ions that a name gives are not always drawn.

The subject of the first assay is Phosphorylated Ribosomal Protein S6 (RPS6) in THP-1 cells. The assay is described as follows: THP-1 RPS6 ELISA Assay. The format is cell-based, Human. Particulars: Homo sapiens, THP-1, read-out: PI3Kγ_THP1_RPS6_ELISA IC50 (nM). The method, then:
To measure the Phosphorylated Ribosomal Protein S6 (RPS6) in cell lysates, THP-1 cells (Human Acute Monocytic Leukemia) are purchased from ATCC (Manassas, Va.) and maintained in RPMI with 10% FBS (Gibco/Life Technologies, Carlsbad, Calif.). For the assay, THP-1 cells are serum starved overnight in RPMI, then plated in RPMI (2×10^5 cells/well in 90 μL) into 96-well flat-bottom tissue culture treated plates (Corning, Corning, N.Y.), in the presence or absence of a concentration range of test compounds. Covered plates are incubated for 2 hours at 37° C., 5% CO2 then treated with or without 10 nM MCP-1(MYBioSource, San Diego, Calif.) for 15 minutes at 37° C., 5% CO2. Plates are centrifuged at 1600 RPM and supernatants are removed. Cells are lysed in Lysis Buffer (Cell Signaling, Danvers, Mass.) with Protease Inhibitor (Calbiochem/EMD, Germany), PMSF (Sigma, St Louis Mo.), HALTS (Thermo Fisher, Rockford, Ill.) for 30 min on wet ice. Cell lysates are frozen at −80 OC before testing. The lysates are tested in the Human/Mouse/Rat Phospho-RPS6 ELISA (R&D Systems, Inc. Minn, Minn.). The plate is measured using a microplate reader (SpectraMax M5—Molecular Devices, LLC Sunnyvale, Calif.) set to 450 nm with a wavelength correction of 540. IC50 determination is performed by fitting the curve of inhibitor percent inhibition versus the log of the inhibitor concentration using the GraphPad Prism 5.0 software.
In general terms: ELISA stands for enzyme-linked immunosorbent assay.
In the case of `Cc1ccc(C(O)(C(N)=O)C(F)(F)F)cc1-c1cnc(N)c(N2CCN(c3ccccn3)CC2)n1` (stereo not shown) [Example 117, 2-(3-(5-amino-6-(4-(pyridin-2-yl)piperazin-1-yl)pyrazin-2-yl)-4-methylphenyl)-3,3,3-trifluoro-2-hydroxypropanamide trifluoroacetate], the IC50 was under 100 nM.

The same assay, now with this note: Homo sapiens; Table A1; THP-1 cells, 10 nM MCP-1; read-out: PI3Kγ_THP1_RPS6_ELISA IC50.
`Cc1ccc(C(O)(C(N)=O)C(F)(F)F)cc1-c1cnc(N)c(C(=O)N[C@@H]2CCCOC2)n1` (stereo partly drawn) [Example 9, 3-amino-6-(5-(3-amino-1,1,1-trifluoro-2-hydroxy-3-oxopropan-2-yl)-2-methylphenyl)-N-((R)-tetrahydro-2H-pyran-3-yl)pyrazine-2-carboxamide trifluoroacetate]: the IC50 was under 100 nM.
Same read-out and setting: with `Cc1ccc(C(O)(C(N)=O)C(F)(F)F)cc1-c1cnc(N)c(C(=O)NC(C)C)n1` (stereo not shown) [Example 5, 3-Amino-6-(5-(3-amino-1,1,1-trifluoro-2-hydroxy-3-oxopropan-2-yl)-2-methylphenyl)-N-isopropylpyrazine-2-carboxamide trifluoroacetate] the figure was under 100 nM.
The same measure, in the same setting: under `CCNC(=O)c1nc(-c2cc(C(O)(C(N)=O)C(F)(F)F)ccc2C)cnc1N` (stereo not shown) [Example 7, 3-Amino-6-(5-(3-amino-1,1,1-trifluoro-2-hydroxy-3-oxopropan-2-yl)-2-methylphenyl)-N-ethylpyrazine-2-carboxamide trifluoroacetate] stands under 100 nM.
For `Cc1ccc(C(O)(C(N)=O)C(F)(F)F)cc1-c1cnc(N)c(C(=O)NCC2(C#N)CCC2)n1` (stereo not shown) [Example 16, 3-amino-6-(5-(3-amino-1,1,1-trifluoro-2-hydroxy-3-oxopropan-2-yl)-2-methylphenyl)-N-((1-cyanocyclobutyl)methyl)pyrazine-2-carboxamide trifluoroacetate], the IC50 is under 100 nM.
Same read-out and setting: with `Cc1ccc(C(O)(C(N)=O)C(F)(F)F)cc1-c1cnc(N)c(C(=O)NC23CC(C#N)(C2)C3)n1` (stereo not shown) [Example 23, 3-amino-6-(5-(3-amino-1,1,1-trifluoro-2-hydroxy-3-oxopropan-2-yl)-2-methylphenyl)-N-(3-cyanobicyclo[1.1.1]pentan-1-yl)pyrazine-2-carboxamide trifluoroacetate] the figure was under 100 nM; with `Cc1ccc(C(O)(C(N)=O)C(F)(F)F)cc1-c1cnc(N)c(C(=O)N2CCC2(C)C)n1` (stereo not shown) [Example 27, 2-(3-(5-amino-6-(2,2-dimethylazetidine-1-carbonyl)pyrazin-2-yl)-4-methylphenyl)-3,3,3-trifluoro-2-hydroxypropanamide], under 100 nM.
`Cc1ccc(C(O)(C(N)=O)C(F)(F)F)cc1-c1cnc(N)c(C(=O)N[C@H]2CCCOC2)n1` (stereo partly drawn) [Example 10, 3-amino-6-(5-(3-amino-1,1,1-trifluoro-2-hydroxy-3-oxopropan-2-yl)-2-methylphenyl)-N-((S)-tetrahydro-2H-pyran-3-yl)pyrazine-2-carboxamide trifluoroacetate]: the concentration for half-maximal inhibition (IC50) was under 100 nM.
`COC[C@H]1CCN1C(=O)c1nc(-c2cc(C(O)(C(N)=O)C(F)(F)F)ccc2C)cnc1N` (stereo partly drawn) [Example 26, 2-(3-(5-amino-6-((R)-2-(methoxymethyl)azetidine-1-carbonyl)pyrazin-2-yl)-4-methylphenyl)-3,3,3-trifluoro-2-hydroxypropanamide]: the half-maximal inhibitory concentration (IC50) is under 500 nM.
The same measure, in the same setting: under `Cc1ccc(C(O)(C(N)=O)C(F)(F)F)cc1-c1cnc(N)c(C(=O)NCCC#N)n1` (stereo not shown) [Example 14, 3-amino-6-(5-(3-amino-1,1,1-trifluoro-2-hydroxy-3-oxopropan-2-yl)-2-methylphenyl)-N-(2-cyanoethyl)pyrazine-2-carboxamide trifluoroacetate] stands under 100 nM.

Staying with this assay, now noted: Homo sapiens; Table A2; THP-1 cells, 10 nM MCP-1; read-out: PI3Kγ_THP1_RPS6_ELISA IC50.
`Cc1ccc(C(O)(C(N)=O)C(F)(F)F)cc1-c1cnc(N)c(C#Cc2cccc(F)c2)n1` (stereo not shown) [Example 61, 2-(3-(5-amino-6-((3-fluorophenyl)ethynyl)pyrazin-2-yl)-4-methylphenyl)-3,3,3-trifluoro-2-hydroxypropanamide]: the IC50 is under 100 nM.
As to `Cc1ccc(C(O)(C(N)=O)C(F)(F)F)cc1-c1cnc(N)c(C#CC2CC2)n1` (stereo not shown) [Example 48, 2-(3-(5-amino-6-(cyclopropylethynyl)pyrazin-2-yl)-4-methylphenyl)-3,3,3-trifluoro-2-hydroxypropanamide], the IC50 is over 1000 nM.
For `Cc1ccc(C(O)(C(N)=O)C(F)(F)F)cc1-c1cnc(N)c(C#Cc2cnn(C)c2)n1` (stereo not shown) [Example 54, 2-(3-(5-amino-6-((1-methyl-1H-pyrazol-4-yl)ethynyl)pyrazin-2-yl)-4-methylphenyl)-3,3,3-trifluoro-2-hydroxypropanamide], the half-inhibitory concentration (IC50) is under 100 nM.
On the same count and under the same terms, with `Cc1ccc(C(O)(C(N)=O)C(F)(F)F)cc1-c1cnc(N)c(C#Cc2ccccn2)n1` (stereo not shown) [Example 55, 2-(3-(5-amino-6-(pyridin-2-ylethynyl)pyrazin-2-yl)-4-methylphenyl)-3,3,3-trifluoro-2-hydroxypropanamide] the figure was under 100 nM; with `Cc1ccc(C(O)(C(N)=O)C(F)(F)F)cc1-c1cnc(N)c(C#CC2(C)CCOCC2)n1` (stereo not shown) [Example 64, 2-(3-(5-amino-6-((4-methyltetrahydro-2H-pyran-4-yl)ethynyl)pyrazin-2-yl)-4-methylphenyl)-3,3,3-trifluoro-2-hydroxypropanamide], under 100 nM.
On the same count and under the same terms, under `Cc1ccc(C(O)(C(N)=O)C(F)(F)F)cc1-c1cnc(N)c(C#Cc2ccn[nH]2)n1` (stereo not shown) [Example 52, 2-(3-(6-((1H-pyrazol-5-yl)ethynyl)-5-aminopyrazin-2-yl)-4-methylphenyl)-3,3,3-trifluoro-2-hydroxypropanamide] stands under 500 nM.

Staying with this assay, now noted: Homo sapiens; Table A3; THP-1 cells, 10 nM MCP-1; read-out: PI3Kγ_THP1_RPS6_ELISA IC50.
On to `CC(=O)NCC(O)(c1ccc(C)c(-c2cnc(N)c(-c3cnn(CC(F)(F)F)c3)n2)c1)C(F)(F)F` (stereo not shown) [Example 104, N-(2-(3-(5-amino-6-(1-(2,2,2-trifluoroethyl)-1H-pyrazol-4-yl)pyrazin-2-yl)-4-methylphenyl)-3,3,3-trifluoro-2-hydroxypropyl)acetamide trifluoroacetate], for which the 50% inhibitory concentration (IC50) is under 100 nM.
On to `CNC(=O)c1ccc(-c2nc(-c3cc(C(O)(C(N)=O)C(F)(F)F)ccc3C)cnc2N)cc1` (stereo not shown) [Example 89, 4-(3-amino-6-(5-(3-amino-1,1,1-trifluoro-2-hydroxy-3-oxopropan-2-yl)-2-methylphenyl)pyrazin-2-yl)-N-methylbenzamide trifluoroacetate], for which the IC50 was under 500 nM.
Still for that read-out and setting: with `Cc1ccc(-c2nc(-c3cc(C(O)(C(N)=O)C(F)(F)F)ccc3C)cnc2N)cn1` (stereo not shown) [Example 82, 2-(3-(5-amino-6-(6-methylpyridin-3-yl)pyrazin-2-yl)-4-methylphenyl)-3,3,3-trifluoro-2-hydroxypropanamide bistrifluoroacetate] the figure was under 500 nM.
With `Cc1ccc(C(O)(C(N)=O)C(F)(F)F)cc1-c1cnc(N)c(-n2cccn2)n1` (stereo not shown) [Example 93, 2-(3-(5-Amino-6-(1H-pyrazol-1-yl)pyrazin-2-yl)-4-methylphenyl)-3,3,3-trifluoro-2-hydroxypropanamide], the IC50 was under 100 nM.
The same measure, in the same setting: with `Cc1ccc(C(O)(C(N)=O)C(F)(F)F)cc1-c1cnc(N)c(-c2ccc(CC#N)cc2)n1` (stereo not shown) [Example 87, 2-(3-(5-amino-6-(4-(cyanomethyl)phenyl)pyrazin-2-yl)-4-methylphenyl)-3,3,3-trifluoro-2-hydroxypropanamide trifluoroacetate] the figure was under 500 nM; with `CNC(=O)C(O)(c1ccc(C)c(-c2cnc(N)c(-n3cncn3)n2)c1)C(F)(F)F` (stereo not shown) [Example 94, 2-(3-(5-Amino-6-(1H-1,2,4-triazol-1-yl)pyrazin-2-yl)-4-methylphenyl)-3,3,3-trifluoro-2-hydroxy-N-methylpropanamide trifluoroacetate], under 100 nM.

Still in this assay, the particulars now being: Homo sapiens; Table A4; THP-1 cells, 10 nM MCP-1; cells given with + symbol; read-out: PI3Kγ_THP1_RPS6_ELISA IC50.
Consider `Cc1ccc(C(O)(C(N)=O)C(F)(F)F)cc1-c1cnc(N)c(N2CCN(c3ccccc3C#N)CC2)n1` (stereo not shown) [Example 122, 2-(3-(5-amino-6-(4-(2-cyanophenyl)piperazin-1-yl)pyrazin-2-yl)-4-methylphenyl)-3,3,3-trifluoro-2-hydroxypropanamide trifluoroacetate], for which the IC50 was under 100 nM.
Same read-out and setting: under `Cc1ccc(C(O)(C(N)=O)C(F)(F)F)cc1-c1cnc(N)c(N2CCN(c3nccnc3C#N)CC2)n1` (stereo not shown) [Example 128, 2-(3-(5-amino-6-(4-(3-cyanopyrazin-2-yl)piperazin-1-yl)pyrazin-2-yl)-4-methylphenyl)-3,3,3-trifluoro-2-hydroxypropanamide trifluoroacetate] stands under 100 nM; under `Cc1ccc(C(O)(C(N)=O)C(F)(F)F)cc1-c1cnc(N)c(N2CCN3C(=O)CCC3C2)n1` (stereo not shown) [Example 126, 2-(3-(5-amino-6-(6-oxohexahydropyrrolo[1,2-a]pyrazin-2(1H)-yl)pyrazin-2-yl)-4-methylphenyl)-3,3,3-trifluoro-2-hydroxypropanamide trifluoroacetate], under 100 nM.

For the origin of these results see patent US11046658B2, “Aminopyrazine derivatives as PI3K-γ inhibitors” (Incyte Corporation, priority 2018, dated 2021).
